This is an account of results in patent US10449208B2, “Antiviral prodrugs of tenofovir” (Merck Sharp & Dohme Corp., priority 2016, dated 2019).

Read-outs that look alike come from different tables or passages of the source.

For series [1], the system named is HIV-1 (H9/IIIB strain). The experiment in a line: Multiple round HIV-1 infection assay (Viking assay) in MT4-GFP cells. Format: cell-based. The note with it: MT4-GFP cells infected with HIV-1 H9/IIIB, inhibition of reproductive ratio R0. How it is done: Assessing Antiviral Potency in a Multiple Round HIV-1 Infection Assay (Viking Assay)
The antiviral activity of the tenofovir prodrugs of the Examples herein was assessed in an assay that measures the rate of replication of HIV in cell culture, termed the Viking assay (Viral KINetics in Green cells) and performed as follows. HIV-1 replication was monitored using MT4-gag-GFP clone D3 (hereafter designated MT4-GFP), which are MT-4 cells modified to harbor a GFP reporter gene, the expression of which is dependent on the HIV-1 expressed proteins tat and rev. Productive infection of an MT4-GFP cell with HIV-1 results in GFP expression approximately 24 h post-infection. MT4-GFP cells were maintained at 37° C./5% CO2/90% relative humidity in RPMI 1640 supplemented with 10% fetal bovine serum, 100 μ/ml penicillin/streptomycin, and 400 μg/ml G418 to maintain the reporter gene. For infections, MT4-GFP cells were placed in the same medium lacking G418 and infected overnight with HIV-1 (H9/IIIB strain) virus at an approximate multiplicity of infection of 0.01 in the same incubation conditions. Cells were then washed and re-suspended in either RPMI 1640 supplemented with 10% or 50% normal human serum (NFIS) at 1.6×10^5 cells/mL (10% NHS or 50% NHS, respectively). Compound plates were prepared by dispensing compounds dissolved in DMSO into wells of 384 well poly-D -lysine-coated plates (0.2 μl/well) using an ECHO acoustic dispenser. Each compound was tested in a 10-point serial 3-fold dilution (typical final concentrations: 8.4 μM-0.42 nM). Controls included no inhibitor (DMSO only) and a combination of three antiviral agents (efavirenz, indinavir, an in-house integrase strand transfer inhibitor at final concentrations of 4 μM each). Cells were added (50 μL/well) to compound plates and the infected cells were maintained at 37° C./5% CO2/90% relative humidity.
infected cells were quantified at two time points, ˜48 h and ˜72 h post -infection, by counting the number of green cells in each well using an Acumen eX3 scanner. The increase in the number of green cells over ˜24 h period gives the reproductive ratio, R0, which is typically 5-15 and has been shown experimentally to be in logarithmic phase (data not shown). Inhibition of R0 is calculated for each well, and IC50s determined by non-linear 4-parameter curve fitting.

Series [2] is described as follows: Prodrug stability assay in bio-relevant media (FaSSIF with Pancreatin, simulated gastrointestinal tract conditions). The class given is in vitro ADME. The note with it: % parent prodrug remaining at 5 h vs 0 h, 37° C., 0.5 mg/mL Pancreatin in FaSSIF, HPLC area ratio. As to the method:
Prodrug Stability Assay in Bio-Relevant Media
The following assay was employed to evaluate the stability of the prodrugs in simulated gastrointestinal tract conditions. Preparation of fasted state simulated intestinal fluid (FaSSIF) using Phares SIF Powder was carried out according to protocols from Phare Drug Delivery AG (Baselland, Switzerland). For sample preparation, 10 μL stock solutions (10 mM) of prodrug substance in DMSO was added to 990 μL of 0.5 mg/mL Pancreatin solution (Fisher CAS#8049-47-6) in FaSSIF. Two samples were prepared for each compound at initial. If the sample was clear solution at the beginning, ran one sample directly as initial by HPLC; if the sample was not clear at starting, diluted the sample by 100% ACN. Put the other sample under 37° C. and observed the sample at 5 h time-point. At 5 h time point, if the sample was clear solution then performed HPLC analysis directly; if it was not clear solution, diluted the sample by 100% ACN and assayed by HPLC. All the samples were vortexed for 3 min and observed before injection. For the diluted samples, the area will be multiplied by a factor when data analysis. The analysis was carried out with an Agilent 1100 series HPLC with autosampler. The column was usually a Poroshell 120 EC -C18, 4.6×50 mm, 2.7 μm. The flow rate was 1.8 mL/min, and the injection volume was 5 or 10 μL. UV detection was in the range 210-400 nm. The mobile phase consisted of solvent A (water plus 10 mM tetrabutylammonium bromide) and solvent B (acetonitrile) with a gradient of 90% solvent A at 0 min changing to 95% solvent B over 6 min, maintained for 1.5 min, then reverting to 90% solvent A over 1.6 min. The area of the parent in prodrug at 5h time point was divided by the area of the parent in prodrug at 0 h time point, to generate the % claimed parent ratio, which are summarized in Table 2 for GI Tract stability.

[3] abbreviates: 10% normal human serum, read-out: Viking, IC50 (10% NHS).
Where [4] appears, read: 50% normal human serum, read-out: Viking, IC50 (50% NHS).
Where [5] appears, read: Human immunodeficiency virus 1, IIIB, 10% normal human serum, read-out: Viking, IC50 (10% NHS).
Setting [6] is: Human immunodeficiency virus 1, IIIB, 50% normal human serum, read-out: Viking, IC50 (50% NHS).

Regarding `CCCCCCOC(=O)C(C)(C)NP(=O)(CO[C@H](C)Cn1cnc2c(N)ncnc21)O[C@H](C)C(=O)OC(C)C` (single isomer, unassigned) [Example 9B], the half-inhibitory concentration (IC50) in series [1] (setting [3]) was found to be 1 nM; in series [1] (setting [4]) it was 2.78 nM. Moreover, the “GI Tract stability” value in series [2] is 6.16%.
On to `CC(C)OC(=O)[C@H](C)OP(=O)(CO[C@H](C)Cn1cnc2c(N)ncnc21)NC(C)(C)C(=O)OC1CCCCC1` (single isomer, unassigned) [Example 12A], for which the IC50 was determined as 5.71 nM in series [1] (setting [5]) and 25.2 nM in series [1] (setting [6]). The “GI Tract stability” value in series [2] is recorded as 98.95%.
On to `CC(C)OC(=O)C(C)(C)NP(=O)(CO[C@H](C)Cn1cnc2c(N)ncnc21)O[C@@H](C)C(=O)OC1CCCC1` (single isomer, unassigned) [Example 13A], for which the half-maximal inhibitory concentration (IC50) in series [1] (setting [5]) came out at 6.17 nM; in series [1] (setting [6]) it was 51.1 nM. The “GI Tract stability” value in series [2] is 70.30%.
Regarding `CC(C)OC(=O)C(C)(C)NP(=O)(CO[C@H](C)Cn1cnc2c(N)ncnc21)O[C@@H](C)C(=O)OC1CCCC1` (single isomer, unassigned) [Example 13B], the results for the IC50 in series [1] (setting [3]) and in series [1] (setting [4]) were 9.44 nM and 60.2 nM, respectively. For the same compound, in series [2], the “GI Tract stability” value is 99.72%.
Take `CC(C)OC(=O)COP(=O)(CO[C@H](C)Cn1cnc2c(N)ncnc21)NC(C)(C)C(=O)OC1CCC1` (single isomer, unassigned) [Example 17B]: the IC50 was determined as 6.7 nM in series [1] (setting [3]) and 18.4 nM in series [1] (setting [4]). Further, the “GI Tract stability” value in series [2] was 99.32%.
In the case of `CC(C)OC(=O)[C@H](C)OP(=O)(CO[C@H](C)Cn1cnc2c(N)ncnc21)NC(C)(C)C(=O)OC1CCCC1` (single isomer, unassigned) [Example 18A], the results for the IC50 in series [1] (setting [6]) and in series [1] (setting [3]) were 16.5 nM and 6.59 nM, respectively. Further, in series [2], the “GI Tract stability” value is 76.31%.
Regarding `CC(C)OC(=O)[C@H](C)OP(=O)(CO[C@H](C)Cn1cnc2c(N)ncnc21)NC(C)(C)C(=O)OC1CCCC1` (single isomer, unassigned) [Example 18B], the IC50 in series [1] (setting [3]) was 2.69 nM; in series [1] (setting [4]) it was 8.77 nM. The “GI Tract stability” value in series [2] is on record as 91.31%.
The corresponding values for `CCCCCOC(=O)C(C)(C)NP(=O)(CO[C@H](C)Cn1cnc2c(N)ncnc21)O[C@@H](C)C(=O)OC1CCCC1` (single isomer, unassigned) [Example 19B] are 3.01 nM, 9.93 nM and 100.00%.
`CC(C)OC(=O)[C@@H](C)OP(=O)(CO[C@H](C)Cn1cnc2c(N)ncnc21)NC(C)(C)C(=O)OC(C)C` (stereo partly drawn) [Example 20, Isopropyl 2-((((((R)-1-(6-amino-9H-purin-9-yl)propan-2-yl)oxy)methyl)(((R)-1-isopropoxy-1-oxopropan-2-yl)oxy)phosphoryl)amino)-2-methylpropanoate]: the IC50 in series [1] (setting [5]) was determined as 21 nM; in series [1] (setting [6]) it was 97 nM. The “GI Tract stability” value in series [2] was 7.19%.
Take `CCCOC(=O)C(C)(C)NP(=O)(CO[C@H](C)Cn1cnc2c(N)ncnc21)OCC(=O)OC(C)C` (stereo partly drawn) [Example 21, Propyl 2-((((((R)-1-(6-amino-9H-purin-9-yl)propan-2-yl)oxy)methyl)(2-isopropoxy-2-oxoethoxy)phosphoryl)amino)-2-methylpropanoate]: the IC50 in series [1] (setting [5]) amounted to 6.15 nM; in series [1] (setting [6]), 12 nM. The “GI Tract stability” value in series [2] is recorded as 99.36%.
The corresponding values for `CCCOC(=O)C(C)(C)NP(=O)(CO[C@H](C)Cn1cnc2c(N)ncnc21)O[C@@H](C)C(=O)OC(C)C` (stereo partly drawn) [Example 22, Propyl 2-((((((R)-1-(6-amino-9H-purin-9-yl)propan-2-yl)oxy)methyl)(((S)-1-isopropoxy-1-oxopropan-2-yl)oxy)phosphoryl)amino)-2-methylpropanoate] are 4.65 nM, 17.7 nM and 79.24%.
Take `CCCOC(=O)C(C)(C)NP(=O)(CO[C@H](C)Cn1cnc2c(N)ncnc21)O[C@H](C)C(=O)OC(C)C` (stereo partly drawn) [Example 23, Propyl 2-((((((R)-1-(6-amino-9H-purin-9-yl)propan-2-yl)oxy)methyl)(((R)-1-isopropoxy-1-oxopropan-2-yl)oxy)phosphoryl)amino)-2-methylpropanoate]: the IC50 in series [1] (setting [5]) is 2.67 nM; in series [1] (setting [6]), 8.19 nM. The “GI Tract stability” value in series [2] was 4.28%.
The corresponding values for `CCCCOC(=O)C(C)(C)NP(=O)(CO[C@H](C)Cn1cnc2c(N)ncnc21)OCC(=O)OC(C)C` (stereo partly drawn) [Example 24, Butyl 2-((((((R)-1-(6-amino-9H-purin-9-yl)propan-2-yl)oxy)methyl)(2-isopropoxy-2-oxoethoxy)phosphoryl)amino)-2-methylpropanoate] are 4.78 nM, 27.8 nM and 98.30%.
The matching figures for `CCCCOC(=O)C(C)(C)NP(=O)(CO[C@H](C)Cn1cnc2c(N)ncnc21)O[C@@H](C)C(=O)OC(C)C` (stereo partly drawn) [Example 25, Butyl 2-((((((R)-1-(6-amino-9H-purin-9-yl)propan-2-yl)oxy)methyl)(((S)-1-isopropoxy-1-oxopropan-2-yl)oxy)phosphoryl)amino)-2-methylpropanoate]: 2.44 nM, 10.5 nM and 79.61%.
Take `CCCCOC(=O)C(C)(C)NP(=O)(CO[C@H](C)Cn1cnc2c(N)ncnc21)O[C@H](C)C(=O)OC(C)C` (stereo partly drawn) [Example 26, Butyl 2-((((((R)-1-(6-amino-9H-purin-9-yl)propan-2-yl)oxy)methyl)(((R)-1-isopropoxy-1-oxopropan-2-yl)oxy)phosphoryl)amino)-2-methylpropanoate]: the values for the IC50 in series [1] (setting [5]) and in series [1] (setting [6]) were 3.1 nM and 8.74 nM, respectively. For the same compound, the “GI Tract stability” value in series [2] is recorded as 9.01%.
The matching figures for `CC(C)COC(=O)C(C)(C)NP(=O)(CO[C@H](C)Cn1cnc2c(N)ncnc21)O[C@@H](C)C(=O)OC(C)C` (stereo partly drawn) [Example 31, Isobutyl 2-((((((R)-1-(6-amino-9H-purin-9-yl)propan-2-yl)oxy)methyl)(((S)-1-isopropoxy-1-oxopropan-2-yl)oxy)phosphoryl)amino)-2-methylpropanoate]: 2.39 nM, 7.57 nM and 85.48%.
In the case of `CCCCCCOC(=O)C(C)(C)NP(=O)(CO[C@H](C)Cn1cnc2c(N)ncnc21)O[C@@H](Cc1ccccc1)C(=O)OC(C)C` (stereo partly drawn) [Example 33, Hexyl 2-((((((R)-1-(6-amino-9H-purin-9-yl)propan-2-yl)oxy)methyl)(((S)-1-isopropoxy-1-oxo-3-phenylpropan-2-yl)oxy)phosphoryl)amino)-2-methylpropanoate], the IC50 in series [1] (setting [5]) was 1.69 nM; in series [1] (setting [6]) it was 5.06 nM. For the same compound, the “GI Tract stability” value in series [2] is 26.96%.

For orientation: IC50 means the concentration at which inhibition is half-maximal.
